Laboratory results reported in patent US10815226B2, “Heteroaryl compounds as inhibitors of necrosis, composition and application thereof” (ACCRO BIOSCIENCE INC., priority 2016, dated 2020).

Assays:
[1] = test system: L929 cells; test: L929 cell necroptosis assay (same protocol as the HT29 cell assay); type: cell-based, mouse; conditions: for L929 Inhibition (10 μM): 10 μM test compound, protocol as HT29 assay; for IC50: Mus musculus
Experimental: The efficacies of RIP1 inhibitors were tested in vitro using human colon cancer TH29 cells in a necroptosis assay. […] Then the cells were treated with TNF-α (40 ng/mL), Smacmimetic (100 nM) and z-VAD (20 μM) for 48 hours, and the viability was quantified. DMSO pretreatment group was negative control, Nec-1 pretreatment group was positive control.
Biological In Vitro L929 Cell Assay.
Mouse L-cells NCTC 929 (L929) were acquired from ATCC (cat. no. ATCC CCL-1) and banked in liquid nitrogen. The assay protocol was the same as described for the HT29 cell assay.

[2] = test system: HT29 cells; test: HT29 cell necroptosis assay (TNF-α/Smac mimetic/z-VAD induced necrosis, viability); type: cell-based, human; conditions: 10 μM test compound pretreated one hour, TNF-α (40 ng/mL), Smacmimetic (100 nM), z-VAD (20 μM) for 48 hours
Experimental: Biological in Vitro HT29 Cell Assay.
The efficacies of RIP1 inhibitors were tested in vitro using human colon cancer TH29 cells in a necroptosis assay. For the assay, Cells were added to 96-well plates and then 10 μM of the test compound was pretreated for one hour. Then the cells were treated with TNF-α (40 ng/mL), Smacmimetic (100 nM) and z-VAD (20 μM) for 48 hours, and the viability was quantified. DMSO pretreatment group was negative control, Nec-1 pretreatment group was positive control.

[3] = test system: HT29 cells; test: as above; type: cell-based, human; conditions: TNF-α/Smacmimetic/z-VAD induced necrosis
[4] = Homo sapiens, HT-29, HT29 cells, values given in μM
[5] = Homo sapiens, HT-29, HT29 cells, values in nM

Structure (SMILES): COc1ncc(-c2ccc3nc(NC(C)=O)sc3c2)cc1NC(=O)Cc1ccccc1 [Compound A22]
- L929 Inhibition (10 μM) [1]: 42%
- HT29 Inhibition (10 μM) [2]: 66%

Structure (SMILES): CC(=O)Nc1nc2ccc(-c3cnc(Cl)c(NC(=O)c4cccnc4)c3)cc2s1 [Compound A3]
- L929 Inhibition (10 μM) [1]: 1%
- HT29 Inhibition (10 μM) [2]: 7%

Structure (SMILES): CC(=O)Nc1nc2ccc(-c3cncc(NC(=O)c4cccc(F)c4)c3)cc2s1 [Compound A5]
- L929 Inhibition (10 μM) [1]: 90%
- HT29 Inhibition (10 μM) [2]: 50%

Structure (SMILES): CC(=O)Nc1nc2ccc(-c3cncc(NC(=O)Cc4ccccc4Cl)c3)cc2s1 [Compound A13]
- L929 Inhibition (10 μM) [1]: 94%
- IC50 [3, 4]: 5.24 µM
- HT29 Inhibition (10 μM) [2]: 80%

Structure (SMILES): CC(=O)Nc1nc2ccc(-c3cnc(Cl)c(NC(=O)Cc4ccccc4Cl)c3)cc2s1 [Compound A24]
- L929 Inhibition (10 μM) [1]: 42%
- IC50 [3, 5]: 0.527 µM
- HT29 Inhibition (10 μM) [2]: 113%

Structure (SMILES): CC(=O)Nc1nc2ccc(-c3cnc(C)c(NC(=O)OC4CCCCC4)c3)nc2s1 [Compound A57]
- IC50 ([1]; values in nM): 30 nM
- IC50 [3, 5]: 0.092 µM

Structure (SMILES): CC(=O)Nc1nc2ccc(-c3cnc(C)c(NC(=O)OC4CCCCC4)c3)cc2s1 [Compound A36, Cyclohexyl (5-(2-acetamidobenzo[d]thiazol-6-yl)-2-methylpyridin-3-yl)carbamate]
- IC50 ([1]; values in nM): 5 nM
- IC50 [3, 5]: 0.03 µM

Structure (SMILES): CC(=O)Nc1nc2ccc(-c3cncc(NC(=O)Cc4ccc(F)cc4)c3)cc2s1 [Compound A18]
- L929 Inhibition (10 μM) [1]: 51%
- HT29 Inhibition (10 μM) [2]: 24%

Structure (SMILES): CC(=O)Nc1nc2ccc(-c3cnc(C)c(NC(=O)CC(C)(C)C)c3)cc2s1 [Compound A45]
- IC50 ([1]; values given in μM): 1010 nM
- IC50 [3, 5]: 0.43 µM

Structure (SMILES): CC(=O)Nc1nc2ccc(-c3cccc(NC(=O)Cc4ccccc4Cl)c3)cc2s1 [Compound A28]
- L929 Inhibition (10 μM) [1]: 45%
- HT29 Inhibition (10 μM) [2]: 34%

Structure (SMILES): Cc1ncc(-c2ccc3nc(NC(=O)CCCCCNC(=O)OC(C)(C)C)sc3c2)cc1NC(=O)Cc1ccccc1 [Compound A31]
- IC50 [3, 4]: 3.4 µM
- HT29 Inhibition (10 μM) [2]: 87%

Structure (SMILES): CC(=O)Nc1nc2ccc(-c3cnc(C)c(NC(=O)CC4CCCC4)c3)cc2s1 [Compound A43]
- IC50 [3, 5]: 0.431 µM
- HT29 Inhibition (10 μM) [2]: 78%

Structure (SMILES): CC(=O)Nc1nc2ccc(-c3cnc(C)c(NC(=O)CN4CCCCC4)c3)cc2s1 [Compound A40]
- IC50 [3, 4]: 1.1 µM
- HT29 Inhibition (10 μM) [2]: 79%

Structure (SMILES): CC(=O)Nc1nc2ccc(-c3cncc(NC(=O)Cc4ccccc4)c3)cc2s1 [Compound A12]
- L929 Inhibition (10 μM) [1]: 80%
- IC50 [3, 4]: 2.56 µM
- HT29 Inhibition (10 μM) [2]: 11%

Structure (SMILES): CC(=O)Nc1nc2ccc(-c3cnc(C)c(NC(=O)CC(C)C)c3)cc2s1 [Compound A44]
- IC50 [3, 4]: 2.69 µM
- HT29 Inhibition (10 μM) [2]: 47%

Structure (SMILES): Nc1nc2ccc(-c3cnc(Cl)c(NC(=O)c4cccc(F)c4)c3)cc2s1 [Compound A1]
- L929 Inhibition (10 μM) [1]: 48%
- HT29 Inhibition (10 μM) [2]: 112%

Structure (SMILES): CC(=O)Nc1nc2ccc(-c3cnc(Cl)c(NC(=O)Cc4ccccc4)c3)cc2s1 [Compound A21]
- L929 Inhibition (10 μM) [1]: 42%
- IC50 [3, 4]: 16.5 µM
- HT29 Inhibition (10 μM) [2]: 28%

Structure (SMILES): CC(=O)Nc1nc2ccc(-c3cnc(C)c(NC(=O)CC4CCCCC4)c3)cc2s1 [Compound A25]
- IC50 [3, 5]: 0.255 µM
- HT29 Inhibition (10 μM) [2]: 68%

Structure (SMILES): CC(=O)Nc1nc2ccc(-c3cnc(Cl)c(NC(=O)Cc4ccc(OCCOCCNC(=O)CCCCCNC(=O)CCCC[C@@H]5SC[C@@H]6NC(=O)N[C@@H]65)cc4)c3)cc2s1 [Compound A27]
- L929 Inhibition (10 μM) [1]: 42%
- HT29 Inhibition (10 μM) [2]: 48%

Structure (SMILES): CC(=O)Nc1ccc2cc(-c3cnc(C)c(NC(=O)OC4CCCCC4)c3)ccc2n1 [Compound A99]
- IC50 [3, 5]: 0.441 µM

Structure (SMILES): CCC(=O)Nc1nc2ccc(-c3cnc(C)c(NC(=O)OC4CCCCC4)c3)cc2s1 [Compound A60]
- IC50 [3, 5]: 0.053 µM

Structure (SMILES): CC(=O)Nc1nc2ccc(-c3cnc(C)c(NC(=O)O[C@H]4CC[C@@H](O)CC4)c3)cc2s1 [Compound A80]
- IC50 [3, 5]: 0.653 µM

Structure (SMILES): CC(=O)Nc1cn2cc(-c3cnc(C)c(NC(=O)CC4CCCCC4)c3)ccc2n1 [Compound A46]
- IC50 ([1]; values given in μM): 2480 nM
- IC50 [3, 5]: 0.9 µM

Structure (SMILES): CC(=O)Nc1nc2cnc(-c3cnc(C)c(NC(=O)OC4CCCCC4)c3)cc2s1 [Compound A64]
- IC50 [3, 4]: 1 µM

Structure (SMILES): Cc1ncc(-c2ccc3nc(N)sc3c2)cc1NC(=O)OC1CCCCC1 [Compound A70, Cyclohexyl (5-(2-aminobenzo[d]thiazol-6-yl)-2-methylpyridin-3-yl)carbamate]
- IC50 [3, 5]: 0.093 µM

Structure (SMILES): CCc1ncc(-c2ccc3nc(NC(C)=O)sc3c2)cc1NC(=O)OC1CCCCC1 [Compound A54]
- IC50 ([1]; values in nM): 200 nM
- IC50 [3, 5]: 0.075 µM

Structure (SMILES): CC(=O)Nc1nc2ccc(-c3cnc(F)c(NC(=O)OC4CCCCC4)c3)cc2s1 [Compound A90]
- IC50 ([3]; HT29 cells, values in nM): 0.3 µM

Structure (SMILES): CNC(=O)Nc1nc2ccc(-c3cnc(C)c(NC(=O)OC4CCCCC4)c3)cc2s1 [Compound A94]
- IC50 [3, 5]: 0.01 µM

Structure (SMILES): CC(=O)Nc1cn2cc(-c3cnc(C)c(NC(=O)OC4CCCCC4)c3)ccc2n1 [Compound A50, Cyclohexyl (5-(2-acetamidoimidazo[1,2-a]pyridin-6-yl)-2-methylpyridin-3-yl)carbamate]
- IC50 [3, 5]: 0.097 µM

Structure (SMILES): CC(=O)Nc1nc2ccc(-c3cncc(NC(=O)Cc4ccc(Cl)cc4)c3)cc2s1 [Compound A15]
- L929 Inhibition (10 μM) [1]: 87%
- HT29 Inhibition (10 μM) [2]: 95%

Structure (SMILES): CC(=O)Nc1nc2ccc(-c3cc(NC(=O)Cc4ccccc4)ccn3)cc2s1 [Compound A19]
- L929 Inhibition (10 μM) [1]: 22%
- HT29 Inhibition (10 μM) [2]: 1%

Structure (SMILES): CC(=O)Nc1nc2ccc(-c3cnc(C)c(NC(=O)OC(C)(C)C)c3)cc2s1 [Compound A48]
- IC50 [3, 5]: 0.5 µM

Structure (SMILES): Cc1ncc(-c2ccc3nc(NC(=O)C4CC4)cn3n2)cc1NC(=O)OC1CCCCC1 [Compound A67]
- IC50 [3, 5]: 0.031 µM

Structure (SMILES): Cc1ncc(-c2ccc3nc(NC(=O)C4CC4)sc3c2)cc1NC(=O)OC1CCCOC1 (centres unmarked) [Compound A68]
- IC50 [3, 5]: 0.031 µM

Structure (SMILES): CC(=O)Nc1nc2ccc(-c3cnc(C)c(NC(=O)OC4CCC(=O)CC4)c3)cc2s1 [Compound A78]
- IC50 [3, 5]: 0.867 µM

Structure (SMILES): CC(=O)Nc1cn2nc(-c3cnc(C)c(NC(=O)OC4CCCCC4)c3)ccc2n1 [Compound A65]
- IC50 [3, 5]: 0.167 µM

Structure (SMILES): CC(=O)Nc1nc2ccc(-c3ccnc(NC(=O)Cc4ccccc4Cl)c3)cc2s1 [Compound A30]
- L929 Inhibition (10 μM) [1]: 45%
- HT29 Inhibition (10 μM) [2]: 38%

Structure (SMILES): CC(=O)Nc1nc2ccc(-c3cnc(Cl)c(NC(=O)Cc4ccc(OCCOCCNC(=O)OC(C)(C)C)cc4)c3)cc2s1 [Compound A26]
- L929 Inhibition (10 μM) [1]: 42%
- HT29 Inhibition (10 μM) [2]: 30%

Structure (SMILES): CC(=O)Nc1nc2ccc(-c3cccc(NC(=O)Cc4ccccc4)c3)cc2s1 [Compound A20]
- L929 Inhibition (10 μM) [1]: 69%
- HT29 Inhibition (10 μM) [2]: 11%

Structure (SMILES): CC(=O)Nc1nc2ccc(-c3ccc(C)c(NC(=O)OC4CCCCC4)n3)cc2s1 [Compound A56, Cyclohexyl (6-(2-acetamidobenzo[d]thiazol-6-yl)-3-methylpyridin-2-yl) Carbamate]
- IC50 ([1]; values in nM): 500 nM
- IC50 [3, 5]: 0.7 µM

Structure (SMILES): CC(=O)Nc1nc2ccc(-c3cc(NC(=O)Cc4ccccc4Cl)ccn3)cc2s1 [Compound A29]
- L929 Inhibition (10 μM) [1]: 45%
- HT29 Inhibition (10 μM) [2]: 81%

Structure (SMILES): CCC(CC)OC(=O)Nc1cc(-c2ccc3nc(NC(C)=O)sc3c2)cnc1C [Compound A89]
- IC50 [3, 5]: 0.051 µM

Structure (SMILES): CC(=O)Nc1nc2ccc(-c3cnc(F)c(NC(=O)OC4CCCCC4)c3)cc2s1 [Compound A84]
- IC50 ([3]; HT29 cells, values in nM): 0.031 µM

Structure (SMILES): CC(=O)Nc1nc2ccc(-c3cncc(NC(=O)Cc4ccccc4F)c3)cc2s1 [Compound A16]
- L929 Inhibition (10 μM) [1]: 86%
- HT29 Inhibition (10 μM) [2]: 36%

Structure (SMILES): CC(=O)Nc1nc2ccc(-c3cnc(Cl)c(NC(=O)c4ccncc4)c3)cc2s1 [Compound A4]
- L929 Inhibition (10 μM) [1]: 1%
- HT29 Inhibition (10 μM) [2]: 25%

Structure (SMILES): CC(=O)Nc1nc2ccc(-c3cnc(C)c(NC(=O)OC4CCOCC4)c3)cc2s1 [Compound A55]
- IC50 [3, 5]: 0.253 µM

Structure (SMILES): CC(=O)Nc1nc2ccc(-c3cncc(NC(=O)Cc4cccc(Cl)c4)c3)cc2s1 [Compound A14]
- L929 Inhibition (10 μM) [1]: 95%
- HT29 Inhibition (10 μM) [2]: 71%

Structure (SMILES): CC(=O)Nc1nc2ccc(-c3cnc(C)c(NC(=O)Cc4ccccc4)c3)cc2s1 [Compound A23]
- L929 Inhibition (10 μM) [1]: 42%
- IC50 [3, 5]: 0.67 µM
- HT29 Inhibition (10 μM) [2]: 104%

Structure (SMILES): COc1ncc(-c2ccc3nc(NC(C)=O)sc3c2)cc1NC(=O)OC1CCCCC1 [Compound A69]
- IC50 [3, 5]: 0.107 µM

Structure (SMILES): CC(=O)Nc1nc2cc(-c3cnc(C)c(NC(=O)OC4CCCCC4)c3)ccn2n1 [Compound A58]
- IC50 ([1]; values given in μM): 1000 nM
- IC50 [3, 4]: 1 µM

Structure (SMILES): CC(=O)Nc1nc2ccc(-c3cnc(C)c(NC(=O)OC(C)C4CC4)c3)cc2s1 (centres unmarked) [Compound A88]
- IC50 [3, 5]: 0.04 µM

Structure (SMILES): CC(=O)Nc1nc2ccc(-c3cnc(C)c(NC(=O)OC4CCCCC4)c3)cn2n1 [Compound A53]
- IC50 [3, 4]: 2.19 µM

Structure (SMILES): Cc1ncc(-c2ccc3nc(NC(=O)C4CC4)sc3c2)cc1NC(=O)OC1CCCCC1 [Compound A61]
- IC50 ([1]; values in nM): 3 nM
- IC50 [3, 5]: 0.0012 µM
